Measured values as given in publication PMC4262413, “Importance of Tryptophan in Transforming an Amphipathic Peptide into a Pseudomonas aeruginosa-Targeted Antimicrobial Peptide” (PLoS ONE, 2014).
Values after ≈ are worked out from the molar mass of the structure shown. Where two headings read alike, the source gives them in different places. Residues, ends and D or L forms follow the SMILES beside them.

Columns and labels:
Experiment in all cases: microbe, parasite or virus in culture
[1] = system: S. epidermidis 12228; assay type: cell-based, Staphyfococcus epidermidis
Description: (§1) Minimal inhibitory concentration (MIC) assays were performed as described previously. Briefly, after incubation overnight in Mueller-Hinton (MH) broth at 37°C, the bacteria were grown to exponential growth phase and diluted to approximately 1×10^5 CFU/ml. The peptides were dissolved in 0.2% bovine serum albumin (BSA) containing 0.01% (v/v) acetic acid, and they were then added to each well of a 96-well plates at a final concentration ranging from 0.25 to 128 µM. Each well contained a total volume of 100 µL (50 µL of inoculums and 50 µL of peptide-containing solution). The MICs were determined as the lowest concentration of peptide that prevented visible turbidity by visual inspection after incubation at 37°C for 16–18 h. Independent experiments were carried out at least three times. Uninoculated MH broth was used as a negative control and cultures without added peptides served as the positive control. Minimal bactericidal concentration (MBC) assay was performed following MIC assay. At the end of MIC assay 10 µL aliquots of the medium were taken from peptide-containing wells with no visible bacterial growth. These are plated on MH agar, incubated for 18 h to allow colony growth. The MBC was defined as the lowest peptide concentration resulting in no bacterial growth in the media. Each assay was performed at least three times.

[2] = system: S. typhimurium 7731; assay type: cell-based, Salmonella typhimurium
Description: as §1

[3] = system: E. coli 25922; assay type: cell-based, Escherichia coli
Description: as §1

[4] = system: S. aureus 29213; assay type: cell-based, Staphylococcus aureus
Description: as §1

[5] = system: P. auruginosa LCGE (gentamincin-resistant strain)
Description: as §1
(§2) The antimicrobial activity of the RI16 and mutant peptides against Gram-negative and Gram-positive bacteria were determined.

[6] = system: P. auruginosa LCCI (ciprofloxacin-resistant strain)
Description: as §1, §2

[7] = system: P. auruginosa LCCE (ceftazidime-resistant strain)
Description: as §1, §2

[8] = system: P. aeruginosa 27853; assay type: cell-based, Pseudomonas aeruginosa
Description: as §1

[9] = system: P. auruginosa 21630; assay type: cell-based, Pseudomonas aeruginosa
Description: as §1

[10] = system: P. auruginosa 21625; assay type: cell-based, Pseudomonas aeruginosa
Description: as §1

[11] = system: P. auruginosa LC; assay type: cell-based, Pseudomonas aeruginosa
Description: as §1

[12] = system: P. auruginosa 10419; assay type: cell-based, Pseudomonas aeruginosa
Description: as §1

NCC[C@H](O)C(=O)N[C@@H]1C[C@H](N)[C@@H](O[C@H]2O[C@H](CN)[C@@H](O)[C@H](O)[C@H]2O)[C@H](O)[C@H]1O[C@H]1O[C@H](CO)[C@@H](O)[C@H](N)[C@H]1O [Amikacin, reference compound]
MIC ([1]; Staphylococcus epidermidis, 12228): 0.125 µM (≈ 0.0732 µg/mL) | MIC ([2]; Salmonella enterica, S. typhimurium 7731, MH broth, ~1×10^5 CFU/ml, 37°C, 16–18 h, visible turbidity, at least three independent experiments): 0.5 µM (≈ 0.293 µg/mL) | MIC ([3]; Escherichia coli, 25922): 0.125 µM (≈ 0.0732 µg/mL) | MIC ([4]; Staphylococcus aureus, S. aureus 29213, MH broth, ~1×10^5 CFU/ml, 37°C, 16–18 h, visible turbidity, at least three independent experiments): 1 µM (≈ 0.586 µg/mL) | MIC ([5]; Pseudomonas aeruginosa): > 1280 µM | MIC ([6]; Pseudomonas aeruginosa): 8 µM (≈ 4.68 µg/mL) | MIC ([7]; Pseudomonas aeruginosa): 8 µM (≈ 4.68 µg/mL) | MIC ([8]; Pseudomonas aeruginosa, P. auruginosa 27853, MH broth, ~1×10^5 CFU/ml, 37°C, 16–18 h, visible turbidity, at least three independent experiments): 1 µM (≈ 0.586 µg/mL) | MIC ([9]; Pseudomonas aeruginosa, P. auruginosa 21630, MH broth, ~1×10^5 CFU/ml, 37°C, 16–18 h, visible turbidity, at least three independent experiments): 1 µM (≈ 0.586 µg/mL) | MIC ([10]; Pseudomonas aeruginosa, P. auruginosa 21625, MH broth, ~1×10^5 CFU/ml, 37°C, 16–18 h, visible turbidity, at least three independent experiments): 16 µM (≈ 9.37 µg/mL) | MIC ([11]; Pseudomonas aeruginosa, P. auruginosa LC, MH broth, ~1×10^5 CFU/ml, 37°C, 16–18 h, visible turbidity, at least three independent experiments): 0.25 µM (≈ 0.146 µg/mL) | MIC ([12]; Pseudomonas aeruginosa, P. auruginosa 10419, MH broth, ~1×10^5 CFU/ml, 37°C, 16–18 h, visible turbidity, at least three independent experiments): 2 µM (≈ 1.17 µg/mL)

CC[C@H](C)[C@H](NC(=O)[C@H](CCCCN)NC(=O)[C@H](CCCCN)NC(=O)[C@H](CC(C)C)NC(=O)[C@H](CCCNC(=N)N)NC(=O)[C@H](CCCCN)NC(=O)[C@H](CCCNC(=N)N)NC(=O)[C@@H](NC(=O)[C@H](CCCCN)NC(=O)[C@H](CCCCN)NC(=O)[C@H](CCCNC(=N)N)NC(=O)[C@H](CC(C)C)NC(=O)[C@H](CCCNC(=N)N)NC(=O)[C@H](CCCNC(=N)N)NC(=O)[C@H](Cc1ccccc1)NC(=O)[C@@H](N)CCCNC(=N)N)[C@@H](C)O)C(N)=O [RI16] (H-RFRRLRKKTRKRLKKI-NH2)
MIC ([1]; S. epidermidis 12228, MH broth, ~1×10^5 CFU/ml, 37°C, 16–18 h, visible turbidity, at least three independent experiments): 32 µM (≈ 69.8 µg/mL) | MIC ([2]; S. typhimurium 7731, MH broth, ~1×10^5 CFU/ml, 37°C, 16–18 h, visible turbidity, at least three independent experiments): 128 µM (≈ 279 µg/mL) | MIC ([3]; E. coli 25922, MH broth, ~1×10^5 CFU/ml, 37°C, 16–18 h, visible turbidity, at least three independent experiments): 128 µM (≈ 279 µg/mL) | MIC ([4]; S. aureus 29213, MH broth, ~1×10^5 CFU/ml, 37°C, 16–18 h, visible turbidity, at least three independent experiments): 128 µM (≈ 279 µg/mL) | MIC ([5]; P. auruginosa LCGE, gentamincin-resistant strain, MH broth, ~1×10^5 CFU/ml, 37°C, 16–18 h, visible turbidity): 256 µM (≈ 559 µg/mL) | MIC ([6]; P. auruginosa LCCI, ciprofloxacin-resistant strain, MH broth, ~1×10^5 CFU/ml, 37°C, 16–18 h, visible turbidity): 256 µM (≈ 559 µg/mL) | MIC ([7]; P. auruginosa LCCE, ceftazidime-resistant strain, MH broth, ~1×10^5 CFU/ml, 37°C, 16–18 h, visible turbidity): 256 µM (≈ 559 µg/mL) | MIC ([8]; P. auruginosa 27853, MH broth, ~1×10^5 CFU/ml, 37°C, 16–18 h, visible turbidity, at least three independent experiments): 256 µM (≈ 559 µg/mL) | MIC ([9]; P. auruginosa 21630, MH broth, ~1×10^5 CFU/ml, 37°C, 16–18 h, visible turbidity, at least three independent experiments): 256 µM (≈ 559 µg/mL) | MIC ([10]; P. auruginosa 21625, MH broth, ~1×10^5 CFU/ml, 37°C, 16–18 h, visible turbidity, at least three independent experiments): 256 µM (≈ 559 µg/mL) | MIC ([11]; P. auruginosa LC, MH broth, ~1×10^5 CFU/ml, 37°C, 16–18 h, visible turbidity, at least three independent experiments): 32 µM (≈ 69.8 µg/mL) | MIC ([12]; P. auruginosa 10419, MH broth, ~1×10^5 CFU/ml, 37°C, 16–18 h, visible turbidity, at least three independent experiments): 256 µM (≈ 559 µg/mL)

CC[C@H](C)[C@H](NC(=O)[C@H](CCCCN)NC(=O)[C@H](CCCCN)NC(=O)[C@H](CC(C)C)NC(=O)[C@H](CCCNC(=N)N)NC(=O)[C@H](CCCCN)NC(=O)[C@H](CCCNC(=N)N)NC(=O)[C@H](Cc1ccccc1)NC(=O)[C@H](CCCCN)NC(=O)[C@H](CCCCN)NC(=O)[C@H](CCCNC(=N)N)NC(=O)[C@H](CC(C)C)NC(=O)[C@H](CCCNC(=N)N)NC(=O)[C@H](CCCNC(=N)N)NC(=O)[C@H](Cc1ccccc1)NC(=O)[C@@H](N)CCCNC(=N)N)C(N)=O [T9F] (H-RFRRLRKKFRKRLKKI-NH2)
MIC [1]; 12228: 32 µM (≈ 71.3 µg/mL) | MIC [2]; 7731: 128 µM (≈ 285 µg/mL) | MIC [3]; 25922: 64 µM (≈ 143 µg/mL) | MIC [4]; 29213: 128 µM (≈ 285 µg/mL) | MIC [5]: 256 µM (≈ 571 µg/mL) | MIC [6]: 256 µM (≈ 571 µg/mL) | MIC [7]: 256 µM (≈ 571 µg/mL) | MIC [8]; 27853: 256 µM (≈ 571 µg/mL) | MIC [9]: 256 µM (≈ 571 µg/mL) | MIC [10]: 256 µM (≈ 571 µg/mL) | MIC [11]: 64 µM (≈ 143 µg/mL) | MIC [12]: 256 µM (≈ 571 µg/mL)

CC[C@H](C)[C@H](NC(=O)[C@H](CCCCN)NC(=O)[C@H](CCCCN)NC(=O)[C@H](CC(C)C)NC(=O)[C@H](CCCNC(=N)N)NC(=O)[C@H](CCCCN)NC(=O)[C@H](CCCNC(=N)N)NC(=O)[C@@H](NC(=O)[C@H](CCCCN)NC(=O)[C@H](CCCCN)NC(=O)[C@H](CCCNC(=N)N)NC(=O)[C@H](CC(C)C)NC(=O)[C@H](CCCNC(=N)N)NC(=O)[C@H](CCCNC(=N)N)NC(=O)[C@H](Cc1ccccc1)NC(=O)[C@@H](N)CCCNC(=N)N)[C@@H](C)CC)C(N)=O [T9I] (H-RFRRLRKKIRKRLKKI-NH2)
MIC [1]; 12228: 32 µM (≈ 70.2 µg/mL) | MIC [2]; 7731: 256 µM (≈ 562 µg/mL) | MIC [3]; 25922: 128 µM (≈ 281 µg/mL) | MIC [4]; 29213: 256 µM (≈ 562 µg/mL) | MIC [5]: 256 µM (≈ 562 µg/mL) | MIC [6]: 256 µM (≈ 562 µg/mL) | MIC [7]: 256 µM (≈ 562 µg/mL) | MIC [8]; 27853: 256 µM (≈ 562 µg/mL) | MIC [9]: 256 µM (≈ 562 µg/mL) | MIC [10]: 256 µM (≈ 562 µg/mL) | MIC [11]: 64 µM (≈ 140 µg/mL) | MIC [12]: 256 µM (≈ 562 µg/mL)

CC[C@H](C)[C@H](NC(=O)[C@H](CCCCN)NC(=O)[C@H](CCCCN)NC(=O)[C@H](CC(C)C)NC(=O)[C@H](CCCNC(=N)N)NC(=O)[C@H](CCCCN)NC(=O)[C@H](CCCNC(=N)N)NC(=O)[C@H](CCCCN)NC(=O)[C@H](CCCCN)NC(=O)[C@H](CCCCN)NC(=O)[C@H](CCCNC(=N)N)NC(=O)[C@H](CC(C)C)NC(=O)[C@H](CCCNC(=N)N)NC(=O)[C@H](CCCNC(=N)N)NC(=O)[C@H](Cc1ccccc1)NC(=O)[C@@H](N)CCCNC(=N)N)C(N)=O [T9K] (H-RFRRLRKKKRKRLKKI-NH2)
MIC [1]; 12228: 128 µM (≈ 283 µg/mL) | MIC [2]; 7731: 256 µM (≈ 566 µg/mL) | MIC [3]; 25922: 128 µM (≈ 283 µg/mL) | MIC [4]; 29213: 128 µM (≈ 283 µg/mL) | MIC [8]; 27853: 128 µM (≈ 283 µg/mL) | MIC [9]: 256 µM (≈ 566 µg/mL) | MIC [10]: 256 µM (≈ 566 µg/mL) | MIC [11]: 256 µM (≈ 566 µg/mL) | MIC [12]: 256 µM (≈ 566 µg/mL)

CC(C)(O/N=C(\C(=O)N[C@@H]1C(=O)N2C(C(=O)[O-])=C(C[n+]3ccccc3)CS[C@H]12)c1csc(N)n1)C(=O)O [ceftazidime, reference compound]
MIC ([7]; Pseudomonas aeruginosa): > 512 µM

O=C(O)c1cn(C2CC2)c2cc(N3CCNCC3)c(F)cc2c1=O [ciprofloxacin, reference compound]
MIC ([6]; Pseudomonas aeruginosa): > 512 µM
